Reference: US20050026958A1, “Methods of therapeutic treatment using amounts of retinoid components” (Allergan, Inc., priority 2003, published 2005)

Legend:
[1] = tested on: sebum secretion; conditions: published reports (Geiger); cited from earlier work
[2] = tested on: RXR retinoid receptors; conditions: cited from earlier work
[3] = tested on: patients; assay: Two placebo-controlled 24-week safety studies of oral tazarotene plus 16- to 24-week dose-response evaluations (Example 3); assay type: in vivo, human; conditions: 4.5 mg orally once daily vs placebo
Experimental: Two multicenter, double-blind, randomized, placebo-controlled 24-week studies of identical design are conducted to evaluate the safety of oral tazarotene. In addition, 16- to 24-week dose-response evaluations are performed.
In the two safety trials, the incidence of adverse side effects with a 4.5 mg dose administered orally once daily is compared to the incidence of the same side effects with a placebo. […] The majority of these were mild in severity and typical of adverse effects associated with oral retinoids.

[4] = tested on: patients having nodulocystic acne; assay: Two placebo-controlled dose-ranging safety studies of oral tazarotene in nodulocystic acne (Example 4); assay type: in vivo, human; conditions: for joint disorder during treatment period: placebo 0%; for arthralgia during treatment period: placebo 6%; for myalgia during treatment period: placebo 9%; for asthenia during treatment period: placebo 13%; for dry skin during treatment period: placebo 19%; for headache during treatment period: placebo 28%; for cheilitis during treatment period: placebo 31%; for emotional lability (all cases mild): placebo 4%
Experimental: Two placebo-controlled dose-ranging studies are conducted to evaluate the safety of oral tazarotene in patients having nodulocystic acne. In the first study, patients receive orally administered tazarotene at daily doses of 0.4 mg to 2.8 mg in 96 (71+25) patients (12 weeks treatment plus 12 weeks post-treatment). In the second study, daily doses of 0.75 mg to 6 mg tazarotene are administered to 181 patients (24 weeks treatment plus 12 weeks post-treatment).

[5] = tested on: patients (psoriasis); assay: Adverse event monitoring in Phase 3 studies of orally administered tazarotene for psoriasis (Table 1); assay type: in vivo, human; conditions: Taz 4.5 mg, combined Studies 1 and 2 (N = 348)
Experimental: A series of Phase 3 studies are conducted on orally administered tazarotene for the treatment of psoriasis. Adverse events (side effects) are monitored. In addition, published data for acitretin's side effects are also considered.

[6] = tested on: patients with severe nodulocystic acne; assay: Multicenter double-blind randomized placebo-controlled study of oral tazarotene in severe nodulocystic acne (Example 7); assay type: in vivo, human
Source text: A multicenter, double-blind, randomized, placebo-controlled parallel-group study is undertaken to determine the efficacy of orally administered tazarotene in treating severe nodulocystic acne.
In addition, washout periods for other medications for this study are: 1 week for vitamin A supplements >5000 IU; 2 weeks for topical anti-acne medications (e.g., retinoids, azelaic acid, benzoyl peroxide); 2 weeks for topical or systemic antibiotic therapy that may alter the course of acne; and 6 months for systemic retinoids.
Patients are randomized to receive placebo or oral tazarotene (0.75, 1.5, 3, or 6 mg), in a 1:1:1:1:1 ratio once daily for 24 weeks. After this, the patients are followed without treatment for an additional 12 weeks. Patients discontinuing from the treatment period due to adverse effects or lack of efficacy are eligible for entry into the post-treatment phase.
In the study, overall acne severity is rated as: none (no inflammatory acne lesions); mild (few to several papules or pustules, no nodulocystic lesions); moderate (several to many papules or pustules, few to several nodulocystic lesions); and severe (numerous or extensive papules or pustules, many, for example, at least about 5 or at least about 10, nodulocystic lesions).
Treatment success is defined as at least moderate (about 50%) improvement on the following 7-point global response scale: • 0=completely cleared • 1=almost cleared (about 90% improvement) • 2=marked response (about 75% improvement) • 3=moderate response (about 50% improvement) • 4=slight response (about 25% improvement) • 5=condition unchanged • 6=condition worsened
In this study, facial nodulocystic lesion count includes lesions greater than 5 mm in size. Facial papular/pustular lesion count includes lesions less than or equal to 5 mm in size. Facial non-inflammatory lesion count includes open and closed comedones.
(§1) Sebum output is assessed every 4 weeks at selected centers using the Sebutape® patches, sold by Cuderm Corporation. Urinalysis, chemistry, and hematology values are monitored. Bone formation and resorption assessments (serum bone alkaline phosphatase and serum amino terminal telopeptides, respectively) at selected centers are monitored.
Bone mineral density of spine and proximal femur at selected centers is monitored. Ligament calcification or osteophyte formation (lateral X-ray of the cervical and thoracic spine, and ankle calcaneous) is monitored. Epiphyseal growth plate closure (internal oblique X-ray of the ankle in patients less than or equal to 21 years old) is monitored.

[7] = tested on: sebum secretion; assay: Sebum output by Sebutape patches in the Example 7 study; assay type: in vivo, human; conditions: oral tazarotene 0.75 to 6 mg once daily, maximum of 86 patients
Experimental: as §1

[8] = tested on: patients (acne); assay: Adverse event monitoring in studies of orally administered tazarotene for acne (Table 2); assay type: in vivo, human; conditions: oral tazarotene for acne, combined Studies 1 and 2 (N = 223)
Experimental: Studies are conducted on orally administered tazarotene for the treatment of acne. Adverse events (side effects) are monitored.

[9] = Food effect (high-fat meal vs fast) on pharmacokinetics of tazarotenic acid after 6.3 mg oral tazarotene; assay type: in vivo, human; conditions: healthy subjects
[10] = oral tazarotene 0.4 to 6 mg daily

## CC1=C(/C=C/C(C)=C/C=C/C(C)=C\C(=O)O)C(C)(C)CCC1 [Isotretinoin, isotretinoin]
[1]
  inhibitory effect on the rate of sebum secretion: about 90%

## CC1(C)CC[S+]([O-])c2ccc(C#Cc3ccc(C(=O)O)cn3)cc21 (centres unmarked) [sulfoxide derivative]
[2]
  activation of RXR retinoid receptors: does not activate

## CCOC(=O)c1ccc(C#Cc2ccc3c(c2)C(C)(C)CCS3)nc1 [tazarotene]
[3]
  incidence of ocular, auditory, or thyroid problems: no statistically significant between-group differences
[4]; 2.8 mg, n=11
  joint disorder during treatment period: 27%
  arthralgia during treatment period: 9%
  myalgia during treatment period: 0%
  asthenia during treatment period: 0%
  dry skin during treatment period: 18%
  headache during treatment period: 9%
  cheilitis during treatment period: 64%
[4]; 3 mg group (1 patient)
  emotional lability (all cases mild): 3%
[4]; 3 mg group (3 patients: 2 mild, 1 severe), placebo 2%
  depression: 8%
[4]; 3 mg, n=37
  joint disorder during treatment period: 14%
  arthralgia during treatment period: 8%
  myalgia during treatment period: 16%
  asthenia during treatment period: 19%
  dry skin during treatment period: 35%
  headache during treatment period: 19%
  cheilitis during treatment period: 78%
[4]; 6 mg group (5 patients)
  emotional lability (all cases mild): 14%
[4]; 6 mg, n=36
  joint disorder during treatment period: 19%
  arthralgia during treatment period: 28%
  myalgia during treatment period: 25%
  asthenia during treatment period: 19%
  dry skin during treatment period: 50%
  headache during treatment period: 36%
  cheilitis during treatment period: 94%
[4]; all groups
  severe dry skin: No patient has severe dry skin
[4]; [10]
  changes in urinalysis, chemistry, or hematology measures (incl. liver function tests, triglycerides, total cholesterol, HDL cholesterol): no consistent dose-related clinically significant changes
  ligament calcification, osteophyte formation, changes in serum bone alkaline phosphatase, serum amino terminal telopeptides, bone density: not associated with any clinically significant
[5]
  Atrophy of skin: 0 (0.0) number (%) of patients
  Hyperesthesia: 0 (0.0) number (%) of patients
  Paresthesia: 7 (2.0) number (%) of patients
[6]; 0.75 mg group (2/35), placebo 0%
  patients withdrawing due to adverse events in treatment period: 6%
[6]; 1.5 mg group (0/37)
  patients withdrawing due to adverse events in treatment period: 0%
[6]; 3 mg and 6 mg, week 24 and throughout post-treatment phase (p≦0.05)
  incidence of treatment success (≧50% global improvement) vs placebo: significantly higher incidence of treatment success
[6]; 3 mg group (2/37)
  patients withdrawing due to adverse events in treatment period: 5%
[6]; 6 mg group (1/36)
  patients withdrawing due to adverse events in treatment period: 3%
[6]; all treatment groups
  bone formation and resorption (serum bone alkaline phosphatase, serum amino terminal telopeptides): do not appear to be altered
  changes in urinalysis, chemistry, or hematology measures (incl. liver function tests, triglycerides, total cholesterol, HDL cholesterol): None of the treatment groups show any consistent clinically significant changes
  ligament calcification, osteophyte formation, or changes in bone density: None of the treatment groups show any clinically significant
[7]
  effect on sebum secretion relative to placebo (Sebutape method): does not substantially reduce sebum secretion relative to placebo
[8]
  Conjunctivitis: 0 (0.0) number (%) of patients
  Irritation of eyes: 0 (0.0) number (%) of patients

## CC1(C)CCSc2ccc(C#Cc3ccc(C(=O)O)cn3)cc21 [tazarotenic acid]
[9]; 6.3 mg oral tazarotene, single and multiple dose
  effect of high-fat meal on bioavailability or pharmacokinetics of tazarotenic acid: does not substantially affect
[9]; Day 0, 6.3 mg oral tazarotene after high fat breakfast vs 8-10 hour fast
  average ratio of Cmax values (test/reference): 1.00
[2]
  activation of RXR retinoid receptors: does not activate
